These results are taken from patent US20240374602A1, “METHODS FOR TREATING NEUROGENERATIVE DISEASES” (PTC THERAPEUTICS, INC., priority 2021, published 2024).

The assay relates to MAPT 3R mRNA. In words: RT-qPCR Assay to Quantify MAPT 3R mRNA in Cells. The assay is classed as cell-based. Conditions: cells incubated with compound 24 h; 7-point concentration curve; in house MAPT minigene 3R primer/probe with GAPDH assay; EC2x interpolated from dose response curve. Also noted: key to EC2X: An EC2x value≥3000 nM is indicated by “inactive.”; An EC2x value between >1500 nM and ≤3000 nM is indicated by one star (*); An EC2x value between >1000 nM and ≤1500 nM is indicated by two stars (**); An EC2x value between >500 nM and ≤1000 nM is indicated by three stars (***); An EC2x value between >50 nM and ≤500 nM is indicated by four stars (****); An EC2x value≤50 nM is indicated by five stars (*****). On the procedure: RT-qPCR Assay to Quantify MAPT 3R mRNA in Cells
Test compounds were serially diluted 3.16-fold in 100% DMSO to generate a 7-point concentration curve. Aliquots of 0.5 μL of diluted compounds were transferred to a 96-well flat bottom plate by a liquid handler. An aliquot of 0.5 μL DMSO was also transferred to separate wells and used as controls. Duplicate samples were set up for each compound concentration and for the DMSO control.
Cells were thawed and incubated in cell culture media (DMEM, 1 FBS, and No antibiotic cocktail) for 72 h. Cells were trypsinized, counted, and re-suspended to a concentration of 200,000 cells/mL in cell culture media. A 100 μL aliquot of the cell suspensions were plated at 20,000 cells per well in the compound containing 96 well microtiter plate and incubated for in a cell culture incubator (37° C., […], 100% relative humidity).
After 24 h, media was aspirated from the cells and 20 μL of the RCL2 lysis buffer (10 mM Tris-HCL pH 7.4, 150 mM NaCl, […]) was added to each well and incubated at RT for 1 mi. Chilled nuclease free water (140 μL per well) was added and the plates were immediately transferred on ice. After 1 min on ice, plates were frozen at −80° C. overnight.
Preparation of RT-PCR Reaction Mixture:
An aliquot of 4 μL/well of the cell lysates was transferred using the liquid handler to the Armadillo 384-Well PCR plate containing 6 μL/well of the RT-qPCR reaction mixture that was prepared as detailed above. The plates were then sealed with MicroAmp™ Optical Adhesive Film followed by spinning down for 1 min and placed in the CFX384 thermocycler (BioRad).
The RT-qPCR was carried out at the following temperatures for the indicated time: • Step 1: 48° C. (30 min) • Step 2: 95° C. (10 min) • Step 3: 95° C. (15 sec) • Step 4: 60° C. (1 min); then, repeated Steps 3 and 4 for a total of 40 cycles.
The percent exon 4 skipping was calculated for each dose of compound treatment using Equations 1 and 2.
Data were fit to a dose response curve and the EC2x was interpolated using XLfit® statistical and curve fitting package.
An EC2x value between >1000 nM and ≤1500 nM is indicated by two stars (**). An EC2x value between >500 nM and ≤1000 nM is indicated by three stars (***). An EC2x value between >50 nM and ≤500 nM is indicated by four stars (****). An EC2x value≤50 nM is indicated by five stars (*****).
With `CC(C)[C@H](N)Cc1cc2nc(Cl)nc(NCc3ccco3)c2s1` [Cpd 5, 6-[(2R)-2-amino-3-methylbutyl]-2-chloro-N-[(furan-2-yl)methyl]thieno[3,2-d]pyrimidin-4-amine], the EC (2-fold) fell in the range of 0.05 to 0.5 µM.
On to `Cc1c(C[C@H](C)N)sc2c(NCc3ccco3)nc(Cl)nc12` [Cpd 12, 6-[(2S)-2-aminopropyl]-2-chloro-N-[(furan-2-yl)methyl]-7-methylthieno[3,2-d]pyrimidin-4-amine], for which the EC (2-fold) was not above 0.05 µM.
On the same count and under the same terms, for `Cc1nc(NCc2ccco2)c2sc(C[C@H](C)N)c(C)c2n1` [Cpd 15, 6-[(2S)-2-aminopropyl]-N-[(furan-2-yl)methyl]-2,7-dimethylthieno[3,2-d]pyrimidin-4-amine] the value was 0.05 to 0.5 µM; for `Cc1csc2c(NCc3ccncc3)nc(Cl)nc12` [Cpd 23, 2-chloro-7-methyl-N-[(pyridin-4-yl)methyl]thieno[3,2-d]pyrimidin-4-amine], 0.05 to 0.5 µM.
For `Cc1ccc(CNc2nc(Cl)nc3c(C)c(C[C@H](C)N)sc23)o1` [Cpd 24, 6-[(2S)-2-aminopropyl]-2-chloro-7-methyl-N-[(5-methylfuran-2-yl)methyl]thieno[3,2-d]pyrimidin-4-amine], the EC (2-fold) lay in the range of 0.05 to 0.5 µM.
Turning to `Cc1c(C[C@H](C)N)sc2c(NCc3cccs3)nc(Cl)nc12` [Cpd 28, 6-[(2S)-2-aminopropyl]-2-chloro-7-methyl-N-[(thiophen-2-yl)methyl]thieno[3,2-d]pyrimidin-4-amine], the EC (2-fold) is not above 0.05 µM.
The same measure, in the same setting: for `Cc1c(C[C@H](C)N)sc2c(NCc3nccs3)nc(Cl)nc12` [Cpd 29, 6-[(2S)-2-aminopropyl]-2-chloro-7-methyl-N-[(1,3-thiazol-2-yl)methyl]thieno[3,2-d]pyrimidin-4-amine] the value was not above 0.05 µM.
The same measure, in the same setting: for `Cc1cnc(CNc2nc(Cl)nc3c(C)c(C[C@H](C)N)sc23)s1` [Cpd 31, 6-[(2S)-2-aminopropyl]-2-chloro-7-methyl-N-[(5-methyl-1,3-thiazol-2-yl)methyl]thieno[3,2-d]pyrimidin-4-amine] the value was 1.5 to 3 µM; for `Cc1c(C[C@H](C)N)sc2c(NCc3ccc(F)s3)nc(Cl)nc12` [Cpd 33, 6-[(2S)-2-aminopropyl]-2-chloro-N-[(5-fluorothiophen-2-yl)methyl]-7-methylthieno[3,2-d]pyrimidin-4-amine], 0.05 to 0.5 µM; for `Cc1c(C[C@H](C)N)sc2c(NCc3ccco3)nc(Br)nc12` [Cpd 38, 6-[(2S)-2-aminopropyl]-2-bromo-N-[(furan-2-yl)methyl]-7-methylthieno[3,2-d]pyrimidin-4-amine], 0.5 to 1 µM.
The same measure, in the same setting: under `Cc1c(C[C@H](C)N)sc2c(NCc3ccno3)nc(Cl)nc12` [Cpd 39, 6-[(2S)-2-aminopropyl]-2-chloro-7-methyl-N-[(1,2-oxazol-5-yl)methyl]thieno[3,2-d]pyrimidin-4-amine] stands 0.05 to 0.5 µM; under `Cc1c(C[C@@H](N)CCF)sc2c(NCc3ccco3)nc(Cl)nc12` [Cpd 51, 6-[(2S)-2-amino-4-fluorobutyl]-2-chloro-N-[(furan-2-yl)methyl]-7-methylthieno[3,2-d]pyrimidin-4-amine], not above 0.05 µM.
With `Cc1c(C[C@@H](N)CO)sc2c(NCc3cccs3)nc(Cl)nc12` [Cpd 56, (2R)-2-amino-3-(2-chloro-7-methyl-4-{[(thiophen-2-yl)methyl]amino}thieno[3,2-d]pyrimidin-6-yl)propan-1-ol], the EC (2-fold) is not above 0.05 µM.
As to `Cc1c(C[C@H](C)N)sc2c(NCc3ncccc3F)nc(Cl)nc12` [Cpd 59, 6-[(2S)-2-aminopropyl]-2-chloro-N-[(3-fluoropyridin-2-yl)methyl]-7-methylthieno[3,2-d]pyrimidin-4-amine], the EC (2-fold) is 0.5 to 1 µM.
Consider `Cc1c(C[C@H](C)N)sc2c(NCc3cccnc3F)nc(Cl)nc12` [Cpd 60, 6-[(2S)-2-aminopropyl]-2-chloro-N-[(2-fluoropyridin-3-yl)methyl]-7-methylthieno[3,2-d]pyrimidin-4-amine], for which the EC (2-fold) was in the range of 1.5 to 3 µM.
With `CC[C@H](N)Cc1sc2c(NCc3ccns3)nc(Cl)nc2c1C` [Cpd 62, 6-[(2S)-2-aminobutyl]-2-chloro-7-methyl-N-[(1,2-thiazol-5-yl)methyl]thieno[3,2-d]pyrimidin-4-amine], the EC (2-fold) was in the range of 0.05 to 0.5 µM.
Consider `Cc1c(C[C@H](C)N)sc2c(NCc3c(F)cncc3F)nc(Cl)nc12` [Cpd 64, 6-[(2S)-2-aminopropyl]-2-chloro-N-[(3,5-difluoropyridin-4-yl)methyl]-7-methylthieno[3,2-d]pyrimidin-4-amine], for which the EC2X result is “inactive”.
On to `Cc1c(C[C@@H](C)CN)sc2c(NCc3ccco3)nc(Cl)nc12` [Cpd 72, 6-[(2R)-3-amino-2-methylpropyl]-2-chloro-N-[(furan-2-yl)methyl]-7-methylthieno[3,2-d]pyrimidin-4-amine], for which the EC (2-fold) is 1.5 to 3 µM.
Same read-out and setting: under `Cc1c(C[C@H](C)N)sc2c(NCc3cncs3)nc(Cl)nc12` [Cpd 74, 6-[(2S)-2-aminopropyl]-2-chloro-7-methyl-N-[(1,3-thiazol-5-yl)methyl]thieno[3,2-d]pyrimidin-4-amine] stands not above 0.05 µM.
Take `Cc1c(C[C@H](C)N)sc2c(NCc3cnco3)nc(Cl)nc12` [Cpd 75, 6-[(2S)-2-aminopropyl]-2-chloro-7-methyl-N-[(1,3-oxazol-5-yl)methyl]thieno[3,2-d]pyrimidin-4-amine]: the EC (2-fold) lay within 0.5 to 1 µM.
Still for that read-out and setting: for `CCc1c(C[C@H](C)N)sc2c(NCc3ccco3)nc(Cl)nc12` [Cpd 77, 6-[(2S)-2-aminopropyl]-2-chloro-7-ethyl-N-[(furan-2-yl)methyl]thieno[3,2-d]pyrimidin-4-amine] the value was 0.05 to 0.5 µM; for `Cc1c(C[C@H](C)NC2CCC2)sc2c(NCc3ccco3)nc(Cl)nc12` [Cpd 78, 2-chloro-6-[(2S)-2-(cyclobutylamino)propyl]-N-[(furan-2-yl)methyl]-7-methylthieno[3,2-d]pyrimidin-4-amine], 1.5 to 3 µM; for `C[C@H](N)Cc1sc2c(NCc3cccs3)nc(Cl)nc2c1Br` [Cpd 82, 6-[(2S)-2-aminopropyl]-7-bromo-2-chloro-N-[(thiophen-2-yl)methyl]thieno[3,2-d]pyrimidin-4-amine], not above 0.05 µM.
Same read-out and setting: under `C[C@H](N)Cc1sc2c(NCc3cccs3)nc(Cl)nc2c1C1CC1` [Cpd 86, 6-[(2S)-2-aminopropyl]-2-chloro-7-cyclopropyl-N-[(thiophen-2-yl)methyl]thieno[3,2-d]pyrimidin-4-amine] stands 0.05 to 0.5 µM; under `Cc1c(C[C@H](C)N)sc2c(NCc3sccc3F)nc(Cl)nc12` [Cpd 90, 6-[(2S)-2-aminopropyl]-2-chloro-N-[(3-fluorothiophen-2-yl)methyl]-7-methylthieno[3,2-d]pyrimidin-4-amine], 0.05 to 0.5 µM.
In the case of `Cc1c(C[C@H](C)N)sc2c(NCc3nc(F)cs3)nc(Cl)nc12` [Cpd 92, 6-[(2S)-2-aminopropyl]-2-chloro-N-[(4-fluoro-1,3-thiazol-2-yl)methyl]-7-methylthieno[3,2-d]pyrimidin-4-amine], the EC (2-fold) was in the range of 0.05 to 0.5 µM.
On to `Cc1c(C[C@H](C)N)sc2c(NCc3ncc(F)s3)nc(Cl)nc12` [Cpd 93, 6-[(2S)-2-aminopropyl]-2-chloro-N-[(5-fluoro-1,3-thiazol-2-yl)methyl]-7-methylthieno[3,2-d]pyrimidin-4-amine], for which the EC (2-fold) lay within 0.05 to 0.5 µM.
Still for that read-out and setting: under `Cc1c(C[C@@H](N)CCO)sc2c(NCc3ccco3)nc(Cl)nc12` [Cpd 97, (3S)-3-amino-4-(2-chloro-4-{[(furan-2-yl)methyl]amino}-7-methylthieno[3,2-d]pyrimidin-6-yl)butan-1-ol] stands not above 0.05 µM.
